The test system of this assay is HLA-A2 restricted antigen peptide-specific T cells (CTL precursors) in PBMCs. The assay can be described thus: IFN-γ production (ELISA) by peptide-stimulated HLA-A2 positive PBMCs in response to peptide-sensitized T2 cells. It is filed as cell-based, human. Also noted: production level of IFN-γ: unit not given here. As to conditions: for production level of IFN-γ: average of 4, HIV peptide background subtracted; for IFN-γ production 1st well / IFN-γ production 2nd well / IFN-γ production 3rd well / IFN-γ production 4th well: before vaccination.

Where [1] appears, read: HD6, HLA-A2 positive healthy donor.
Where [2] appears, read: HD7, HLA-A2 positive healthy donor.
Where [3] appears, read: HD8, HLA-A2 positive healthy donor.
Where [4] appears, read: HD9, HLA-A2 positive healthy donor.
Where [5] appears, read: HD10, HLA-A2 positive healthy donor.
Setting [6] is: HLA-A2 positive cervical cancer patient, response to HIV-T2 cells subtracted.
Setting [7] is: HLA-A2 positive prostate cancer patient.
The mark [8] stands for this setting: Pt. 11, HLA-A2 positive pancreatic cancer, ELISA sensitivity limit 10 pg/ml.
[9] abbreviates: Pt. 12, HLA-A2 positive pancreatic cancer, ELISA sensitivity limit 10 pg/ml.
Setting [10] is: Pt. 13, HLA-A2 positive pancreatic cancer, ELISA sensitivity limit 10 pg/ml.
Where [11] appears, read: Pt. 14, HLA-A2 positive pancreatic cancer, ELISA sensitivity limit 10 pg/ml.
[12] abbreviates: Pt. 15, HLA-A2 positive pancreatic cancer, ELISA sensitivity limit 10 pg/ml.

For the sequence ALVEFEDVL [HNRPL140], the “production level of IFN-γ” value runs as follows: under setting [1], 967; under setting [2], 0; under setting [3], 0; under setting [4], 0; under setting [5], 99; under setting [8], 0. Besides, the “production level of IFN-γ” value by setting is: under setting [9], 63; under setting [10], 0; under setting [11], 317; under setting [12], 39. The “IFN-γ production 1st well” value stood at 24 pg/well under setting [6] and 16 pg/well under setting [7]. In addition, the “IFN-γ production 2nd well” value is, setting by setting: under setting [6], under 0 pg/well; under setting [7], under 0 pg/well. Further, the “IFN-γ production 3rd well” value is recorded as 13 pg/well under setting [6] and under 0 pg/well under setting [7]. For the same sequence, the “IFN-γ production 4th well” value is reported as 40 pg/well under setting [6] and under 0 pg/well under setting [7].

Turning to ASLDSDPWV [WHSC2103], the “production level of IFN-γ” value is reported as 0 under setting [1]; 0 under setting [2]; 0 under setting [3]; 0 under setting [4]; 96 under setting [5]; 186 under setting [8]. Also, the “production level of IFN-γ” value runs as follows: under setting [9], 154; under setting [10], 0; under setting [11], 38; under setting [12], 0. In addition, the “IFN-γ production 1st well” value reads like this: under setting [6], 74 pg/well; under setting [7], 3 pg/well. The “IFN-γ production 2nd well” value is given as under 0 pg/well under setting [6] and 0 pg/well under setting [7]. For the same sequence, the “IFN-γ production 3rd well” value reads like this: under setting [6], under 0 pg/well; under setting [7], under 0 pg/well. Moreover, the “IFN-γ production 4th well” value is, setting by setting: under setting [6], under 0 pg/well; under setting [7], under 0 pg/well.

Turning to DLLSHAFFA [ppMAPkkk432], the “production level of IFN-γ” value reads like this: under setting [1], 0; under setting [2], 0; under setting [3], 0; under setting [4], 0; under setting [5], 73; under setting [8], 42. For the same sequence, the “production level of IFN-γ” value stood at 57 under setting [9], 58 under setting [10], 0 under setting [11] and 0 under setting [12]. The “IFN-γ production 1st well” value by setting is: under setting [6], 137 pg/well; under setting [7], 43 pg/well. Besides, the “IFN-γ production 2nd well” value by setting is: under setting [6], 12 pg/well; under setting [7], 64 pg/well. Moreover, the “IFN-γ production 3rd well” value is reported as under 0 pg/well under setting [6] and under 0 pg/well under setting [7]. For the same sequence, the “IFN-γ production 4th well” value under setting [6] was under 0 pg/well and the “IFN-γ production 4th well” value under setting [7] came out at 5 pg/well.

In the case of DVWSFGILL [lck422], the “production level of IFN-γ” value stood at 0 under setting [1]; 11 under setting [2]; 23 under setting [3]; 60 under setting [4]; 26 under setting [5]; 20 under setting [8]. Moreover, the “production level of IFN-γ” value under setting [9] stood at 81, the “production level of IFN-γ” value under setting [10] is reported as 10, the “production level of IFN-γ” value under setting [11] is 71 and the “production level of IFN-γ” value under setting [12] is reported as 0. In addition, the “IFN-γ production 1st well” value is on record as under 0 pg/well under setting [6] and 1 pg/well under setting [7]. For the same sequence, the “IFN-γ production 2nd well” value runs as follows: under setting [6], under 0 pg/well; under setting [7], under 0 pg/well. Moreover, the “IFN-γ production 3rd well” value reads like this: under setting [6], under 0 pg/well; under setting [7], under 0 pg/well. Moreover, the “IFN-γ production 4th well” value is reported as 8 pg/well under setting [6] and under 0 pg/well under setting [7].

With GLLFLHTRT [ppMAPkkk294], the “production level of IFN-γ” value by setting is: under setting [1], 0; under setting [2], 58; under setting [3], 0; under setting [4], 0; under setting [5], 86; under setting [8], 179. For the same sequence, the “production level of IFN-γ” value runs as follows: under setting [9], 170; under setting [10], 0; under setting [11], 0; under setting [12], 0. The “IFN-γ production 1st well” value under setting [6] is given as 133 pg/well and the “IFN-γ production 1st well” value under setting [7] is recorded as under 0 pg/well. Further, the “IFN-γ production 2nd well” value is under 0 pg/well under setting [6] and 34 pg/well under setting [7]. In addition, the “IFN-γ production 3rd well” value reads like this: under setting [6], under 0 pg/well; under setting [7], under 0 pg/well. Also, the “IFN-γ production 4th well” value is recorded as under 0 pg/well under setting [6] and under 0 pg/well under setting [7].

On to ILGELREKV [WHSC2141], for which the “production level of IFN-γ” value reads like this: under setting [1], 0; under setting [2], 0; under setting [3], 0; under setting [4], 12; under setting [5], 260; under setting [8], 0. Moreover, the “production level of IFN-γ” value amounted to 47 under setting [9], 0 under setting [10], 659 under setting [11] and 38 under setting [12]. Besides, the “IFN-γ production 1st well” value worked out at 10 pg/well under setting [6] and 6 pg/well under setting [7]. Besides, the “IFN-γ production 2nd well” value by setting is: under setting [6], under 0 pg/well; under setting [7], 14 pg/well. Further, the “IFN-γ production 3rd well” value runs as follows: under setting [6], under 0 pg/well; under setting [7], under 0 pg/well. Also, the “IFN-γ production 4th well” value reads like this: under setting [6], under 0 pg/well; under setting [7], 9 pg/well.

Regarding KLKHYGPGWV [CypB129], the “production level of IFN-γ” value was 0 under setting [1]; 0 under setting [2]; 31 under setting [3]; 29 under setting [4]; 6 under setting [5]; 43 under setting [8]. Besides, the “production level of IFN-γ” value by setting is: under setting [9], 0; under setting [10], 0; under setting [11], 0; under setting [12], 0.

For the sequence KLVERLGAA [lck246], the “production level of IFN-γ” value was determined as 0 under setting [1]; 21 under setting [2]; 29 under setting [3]; 26 under setting [4]; 0 under setting [5]; 74 under setting [8]. Also, the “production level of IFN-γ” value under setting [9] worked out at 16, the “production level of IFN-γ” value under setting [10] was 24, the “production level of IFN-γ” value under setting [11] was 0 and the “production level of IFN-γ” value under setting [12] stood at 0. The “IFN-γ production 1st well” value by setting is: under setting [6], 19 pg/well; under setting [7], under 0 pg/well. Further, the “IFN-γ production 2nd well” value reads like this: under setting [6], under 0 pg/well; under setting [7], under 0 pg/well. The “IFN-γ production 3rd well” value by setting is: under setting [6], under 0 pg/well; under setting [7], under 0 pg/well. For the same sequence, the “IFN-γ production 4th well” value is, setting by setting: under setting [6], under 0 pg/well; under setting [7], under 0 pg/well.

As for LIADFLSGL [UBE2V85], the “production level of IFN-γ” value is 0 under setting [1]; 0 under setting [2]; 0 under setting [3]; 0 under setting [4]; 1226 under setting [5]; 0 under setting [8]. Further, the “production level of IFN-γ” value runs as follows: under setting [9], 1; under setting [10], 13; under setting [11], 7; under setting [12], 43. Moreover, the “IFN-γ production 1st well” value by setting is: under setting [6], 7 pg/well; under setting [7], 0 pg/well. Besides, the “IFN-γ production 2nd well” value is, setting by setting: under setting [6], 34 pg/well; under setting [7], under 0 pg/well. Besides, the “IFN-γ production 3rd well” value was under 0 pg/well under setting [6] and 7 pg/well under setting [7]. Further, the “IFN-γ production 4th well” value under setting [6] is reported as under 0 pg/well and the “IFN-γ production 4th well” value under setting [7] was under 0 pg/well.

For LLQAEAPRL [SART3302], the “production level of IFN-γ” value is 0 under setting [1]; 0 under setting [2]; 51 under setting [3]; 70 under setting [4]; 0 under setting [5]; 32 under setting [8]. The “production level of IFN-γ” value under setting [9] is 0, the “production level of IFN-γ” value under setting [10] is 226, the “production level of IFN-γ” value under setting [11] came out at 8 and the “production level of IFN-γ” value under setting [12] is 0. Also, the “IFN-γ production 1st well” value under setting [6] was under 0 pg/well and the “IFN-γ production 1st well” value under setting [7] is given as under 0 pg/well. For the same sequence, the “IFN-γ production 2nd well” value is recorded as under 0 pg/well under setting [6] and under 0 pg/well under setting [7]. In addition, the “IFN-γ production 3rd well” value was 8 pg/well under setting [6] and under 0 pg/well under setting [7]. The “IFN-γ production 4th well” value is given as under 0 pg/well under setting [6] and under 0 pg/well under setting [7].

The record behind these values is patent publication US20060035291A1, “Method of detecting cellular immunity and application thereof to drugs” (priority 2001, published 2006).
